According to the supplement of paper PMC9938120:

Columns and labels:
Assay in all cases: drug sensitivity score (DSS3, normalised partial AUC of % inhibition dose-response) (DSS (score)); higher = more sensitive (stronger inhibition of viability); extreme values may be limits of the assay
FMOC24 = patient-derived high-grade serous ovarian cancer cells; details: 72 h; library: FO5A; assay format: 2D, 384-well, CellTiter-Glo
In short: (§1)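 Early-passage (under 10) patient-derived ovarian cancer cells were dispensed onto 384-well flat clear-bottom plates pre-plated with compounds at five concentrations spanning a 10,000-fold range, then incubated 72 h at 37 °C, 5% CO2. Viability was read with CellTiter-Glo, and the data were processed in Breeze. The drug sensitivity score is a partial area under the percent-inhibition dose-response curve divided by the log of the upper asymptote, with higher values meaning greater sensitivity.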

FMOC06 = patient-derived mucinous ovarian cancer cells; details: 72 h; library: FO5A; assay format: 2D, 384-well, CellTiter-Glo
In short: as §1

FMOC02_2 = patient-derived low-grade serous ovarian cancer cells; details: 72 h; library: FO5A; assay format: 2D, 384-well, CellTiter-Glo
In short: as §1

FMOC14 = patient-derived high-grade serous ovarian cancer cells; details: 72 h; library: FO5A; assay format: 2D, 384-well, CellTiter-Glo
In short: as §1

FMOC09 = patient-derived high-grade serous ovarian cancer cells; details: 72 h; library: FO5A; assay format: 2D, 384-well, CellTiter-Glo
In short: as §1

FMOC25_1 = patient-derived low-grade serous ovarian cancer cells; details: 72 h; library: FO4B; assay format: 2D, 384-well, CellTiter-Glo
In short: as §1

FMOC22 = patient-derived mucinous ovarian cancer cells; details: 72 h; library: FO5A; assay format: 2D, 384-well, CellTiter-Glo
In short: as §1

FMOC02_3 = patient-derived low-grade serous ovarian cancer cells; details: 72 h; library: FO5A; assay format: 2D, 384-well, CellTiter-Glo
In short: as §1

FMOC25_2 = patient-derived low-grade serous ovarian cancer cells; details: 72 h; library: FO5A; assay format: 2D, 384-well, CellTiter-Glo
In short: as §1

FMOC03 = patient-derived mucinous ovarian cancer cells; details: 72 h; library: FO5A; assay format: 2D, 384-well, CellTiter-Glo
In short: as §1

| SMILES | drug sensitivity score (FMOC24) | drug sensitivity score (FMOC06) | drug sensitivity score (FMOC02_2) | drug sensitivity score (FMOC14) | drug sensitivity score (FMOC09) | drug sensitivity score (FMOC25_1) | drug sensitivity score (FMOC22) | drug sensitivity score (FMOC02_3) | drug sensitivity score (FMOC25_2) | drug sensitivity score (FMOC03) |
| --- | --- | --- | --- | --- | --- | --- | --- | --- | --- | --- |
| CN(C)Cc1c(C(=O)NCCOc2ccc(C(=O)NO)cc2)oc2ccccc12 [Abexinostat] | 15.3 | 11.7 | 16.6 | 13.5 | 5.9 | 13.3 | 8.5 | 14 | 14.2 | 12.7 |
| CN(C)C/C=C/C(=O)Nc1cc2c(Nc3ccc(F)c(Cl)c3)ncnc2cc1O[C@H]1CCOC1 [Afatinib] | 2.75 | 4.3 | 17.5 | 7.7 | 14.4 | 10.4 | 0.3 | 18.2 | 16.9 | 17 |
| COc1cccc2c1C(=O)c1c(O)c3c(c(O)c1C2=O)C[C@@](O)(/C(CO)=N/NC(=O)CCCCCN1C(=O)C=CC1=O)C[C@@H]3O[C@H]1C[C@H](N)[C@H](O)[C@H](C)O1 [Aldoxorubicin] | 5.2 | 4.4 | 5 | 4.7 | 6.1 | 5.3 | 4.5 | 7.8 | 7.9 | 3.9 |
| COc1cc(Nc2ncc3c(n2)-c2ccc(Cl)cc2C(c2c(F)cccc2OC)=NC3)ccc1C(=O)O [Alisertib] | 1 | 1.3 | 4.8 | 0.7 | 2.3 | 0.9 | 2.2 | 5.8 | 2.3 | 4.7 |
| CN1CC[C@H](c2c(O)cc(O)c3c(=O)cc(-c4ccccc4Cl)oc23)[C@H](O)C1 [Alvocidib] | 18.7 | 17 | 21.3 | 15.3 | 10.7 | 19.1 | 12.8 | 22.4 | 19.6 | 17.9 |
| COc1cc(NS(C)(=O)=O)ccc1Nc1c2ccccc2nc2ccccc12 [Amsacrine] | 8.05 | 4.5 | 5.2 | 2.2 | 4.7 | 8.2 | 8.3 | 7 | 7.1 | 6 |
| O=C1CN2Cc3c(ccc(Cl)c3Cl)N=C2N1 [Anagrelide] | 0 | 0.7 | 0 | 0 | 18.7 | 0 | 0 | 0 | 0 | 0 |
| CC(=O)OC[C@H]1O[C@@H]([S-])[C@H](OC(C)=O)[C@@H](OC(C)=O)[C@@H]1OC(C)=O.CCP(CC)CC.[Au+] [Auranofin] | 1.1 | 4.1 | 0 | 5.2 | 3.5 | 0 | 3.1 | 1.8 | 3.8 | 1.3 |
| Nc1ncn([C@@H]2O[C@H](CO)[C@@H](O)[C@H]2O)c(=O)n1 [Azacitidine] | 14.2 | 1.3 | 5.7 | 5 | 4.1 | 3.2 | 3.7 | 4.7 | 3 | 1.8 |
| Cc1cc(-c2nc(-c3ccc(OC(F)(F)F)cc3)no2)nn1Cc1ccnc(N2CCN(C3CC3)CC2)c1 [BAY 87-2243] | 0 | 0 | 0 | 3.1 | 0 | 2.2 | 6 | 0 | 5.3 | 6.4 |
| CC[C@@H]1C(=O)N(C)c2cnc(Nc3ccc(C(=O)NC4CCN(C)CC4)cc3OC)nc2N1C1CCCC1 [BI 2536] | 2.25 | 2.1 | 6.7 | 0.4 | 9.1 | 5.8 | 5.1 | 9.3 | 7.3 | 5.2 |
| COc1c(C)cnc(Cn2cnc3c(Cl)nc(N)nc32)c1C [BIIB021] | 10.7 | 10 | 16.9 | 13.2 | 13.7 | 13 | 11.7 | 21.1 | 15.5 | 17.2 |
| O=C(Nc1cccc(Nc2ncc(Br)c(NCCc3cnc[nH]3)n2)c1)N1CCCC1 [BX-912] | 4.65 | 4.4 | 5 | 0.5 | 2 | 6.2 | 2.4 | 7.6 | 7.6 | 2.4 |
| O=C(/C=C/c1cccc(S(=O)(=O)Nc2ccccc2)c1)NO [Belinostat] | 11.4 | 11.9 | 12.3 | 16 | 6.4 | 10.8 | 9.9 | 10.3 | 10.5 | 13.6 |
| CC[C@H](NC(=O)[C@H](C)NC)C(=O)N1C[C@@H](O)C[C@H]1Cc1c(-c2[nH]c3cc(F)ccc3c2C[C@@H]2C[C@H](O)CN2C(=O)[C@H](CC)NC(=O)[C@H](C)NC)[nH]c2cc(F)ccc12 [Birinapant] | 21.2 | 3.9 | 0 | 4.5 | 0 | 1.1 | 0 | 0 | 8.3 | 0 |
| CC(C)C[C@H](NC(=O)[C@H](Cc1ccccc1)NC(=O)c1cnccn1)B(O)O [Bortezomib] | 30.8 | 26.2 | 28.8 | 28.5 | 20.4 | 27.2 | 28.4 | 24.9 | 30.1 | 28.2 |
| COc1cc(Nc2c(C#N)cnc3cc(OCCCN4CCN(C)CC4)c(OC)cc23)c(Cl)cc1Cl [Bosutinib] | 7.55 | 5.2 | 14.6 | 6.6 | 9.2 | 3.7 | 6.4 | 14.1 | 13.2 | 9.3 |
| Nc1cc(C(F)(F)F)c(-c2cc(N3CCOCC3)nc(N3CCOCC3)n2)cn1 [Buparlisib] | 2.25 | 8.7 | 11.7 | 4.2 | 6.7 | 11.5 | 6.3 | 13.3 | 10.8 | 8.6 |
| CN(C)c1cc2c(cc1Sc1nc3c(N)nccc3n1CCNCC(C)(C)C)OCO2 [CUDC-305] | 8.05 | 9.8 | 12.9 | 9.3 | 9.7 | 12.2 | 8.9 | 13.9 | 15.2 | 16.1 |
| COc1ccc(-c2nc(N3CCOCC3)c3sc(CN(C)c4ncc(C(=O)NO)cn4)cc3n2)cn1 [CUDC-907] | 33.7 | 31.2 | 34.3 | 31.4 | 18.4 | 29.2 | 31.1 | 33.2 | 29.1 | 32.8 |
| CO[C@H]1C(=O)[C@]2(C)[C@@H](OC)C[C@H]3OC[C@@]3(OC(C)=O)[C@H]2[C@H](OC(=O)c2ccccc2)[C@]2(O)C[C@H](OC(=O)[C@H](O)[C@@H](NC(=O)OC(C)(C)C)c3ccccc3)C(C)=C1C2(C)C [Cabazitaxel] | 0.3 | 11.3 | 12.6 | 0 | 13.5 | 12 | 15.2 | 19.9 | 17.3 | 16 |
| C=CC(=O)Nc1cc2c(Nc3ccc(F)c(Cl)c3)ncnc2cc1OCCCN1CCOCC1 [Canertinib] | 5.3 | 9 | 21.8 | 9.5 | 20.8 | 10 | 8 | 18.7 | 14.6 | 20.6 |
| O=C(O)C1(C(=O)O)CCC1.[NH2-].[NH2-].[Pt+2] [Carboplatin] | 8.3 | 1.3 | 4.9 | 4.9 | 9.1 | 1.3 | 2.8 | 5 | 2.8 | 0.6 |
| CC(C)C[C@H](NC(=O)[C@H](CCc1ccccc1)NC(=O)CN1CCOCC1)C(=O)N[C@@H](Cc1ccccc1)C(=O)N[C@@H](CC(C)C)C(=O)[C@@]1(C)CO1 [Carfilzomib] | 27.4 | 22.4 | 18.7 | 23.6 | 21.6 | 21.6 | 20.1 | 24.6 | 25.5 | 18 |
| CCS(=O)(=O)N1CCN(c2ccc(Nc3ncc(C(N)=O)c(NC4CC4)n3)cc2)CC1 [Cerdulatinib] | 3.3 | 0 | 0 | 3.4 | 0 | 4 | 0 | 0 | 10.6 | 0 |
| CCN(CC)CCCC(C)Nc1ccnc2cc(Cl)ccc12 (stereo not given) [Chloroquine] | 10.2 | 7.2 | 10.1 | 7.6 | 6 | 7.1 | 5.6 | 9.4 | 7 | 7.8 |
| CC(C)[C@H]1C(=O)N[C@@H](CCCNC(=N)N)C(=O)NCC(=O)N[C@@H](CC(=O)O)C(=O)N[C@H](Cc2ccccc2)C(=O)N1C [Cilengitide] | 2.4 | 0 | 0 | 1.9 | 4.3 | 0 | 0 | 1.3 | 0 | 0.1 |
| N.N.[Cl][Pt][Cl] [Cisplatin] | 18.6 | 6 | 9.2 | 3.7 | 16.6 | 7.3 | 6.3 | 9.1 | 6 | 4 |
| Nc1nc(Cl)nc2c1ncn2[C@@H]1O[C@H](CO)[C@@H](O)[C@@H]1F [Clofarabine] | 4.9 | 5.3 | 8.9 | 0 | 7.8 | 8.5 | 10.5 | 13.7 | 16.5 | 4.1 |
| CCN(CC)CCOc1ccc(C(=C(Cl)c2ccccc2)c2ccccc2)cc1 [Clomifene] | 9.9 | 5.6 | 8.2 | 5 | 5 | 4.7 | 4.8 | 9.1 | 7.2 | 7 |
